In assay [1] the test system is bacteria in the body fluid. Briefly: bacteriological analyses of body fluid after embalming. An excerpt:
The results obtained according to the bronopol concentration were as follows:

In another assay the test system is bodies of the deceased. Briefly: embalming tests for presentation of the deceased (arterial and cavity injection). The arrangement: species or system human. The conditions noted are these: 0.6% bronopol; bodies with no particular abnormality. As to the method: For arterial injection, the following compositions were prepared and tested (these compositions are prepared for 1 liter of concentrated solution to which 5 liters of water are added):
This operation uses the method generally used for embalming procedures, namely injection and drainage, said drainage being generally performed in the region of the right heart.
Injection is carried out through the femoral, carotid or axillary arteries.
The amount of fluid injected is approximately 6 liters, but this amount may vary depending on the state of the deceased and the diagnosis made by the embalmer, for example the need for more drainage.
For cavity injection, the following compositions were prepared and tested (these compositions are prepared for 500 ml and used as they are):
This operation uses the method widely practised in embalming procedures, that is, gas and fluid tapping in the region of the thoracic and abdominal cavities, and injection of the composition according to the invention into each of the cavities so that said composition is diffused optimally throughout the cavities concerned.
Still using an identical base of glycerine, ethanol or methanol, tests were carried out using the compositions described in the examples above (compositions (1), (2), (3) and (3a) for arterial injection and compositions (4) and (5) for cavity injection).

The next assay relates to bodies for dissection. Briefly: embalming of bodies for dissection (injection alone, no tapping). The arrangement: species or system human. The conditions noted are these: bronopol 1% by weight, 4 liters injected; dissections 14 and 16 days after death. As to the method: In this type of procedure, no liquid tapping or cavity injection is carried out.
1. Tests were also carried out within the faculty of medicine in the context of the preservation of bodies for dissection.
The results observed are very interesting, knowing that these tests were carried out by injection alone with no tapping.
To obtain optimum preservation of the body, a bronopol concentration of 1% by weight was used for a total injected quantity of 4 liters.
For example, the above-mentioned composition (2) was used on a subject of average build (a person who had been dead for eight days).
Before the test was performed, very marked lividities, large green abdominal marks and sunken eyes (the body had been frozen) were observed.
The product was then injected through the carotid artery in one pass (one times 3.6 liters of water and 400 ml of the above-mentioned composition (2)), for better product dilution (injection total=4 liters) (bronopol concentration=1%).
The subject was moved alternately between the cold storage room (7° C.) and the autopsy table (25° C.).

Consider `O=[N+]([O-])C(Br)(CO)CO` [Bronopol, 2-bromo-2-nitropropane-1,3-diol], for which the results for the “Presence of bacteria in the body fluid” value in assay [1] (Bronopol concentration 0.90%), in assay [1] (Bronopol concentration ≦0.80%) and in assay [1] (Bronopol concentration ≧1.2%) were 1 out of 2 cases with bacteria, 7 out of 8 cases with bacteria and 1 out of 3 cases with bacteria, respectively. The “overall result of embalming tests” value with bodies of the deceased is on record as “satisfactory results”. Moreover, the odour result in the assay with bodies for dissection is given as “lack of odour”. Besides, in the assay with bodies for dissection, the “state of preservation of the body and tissue suppleness” value is reported as “very good results”.

The values above are taken from patent publication US9861094B2, “Composition and method for tissue preservation and embalming” (OGF, priority 2008, dated 2018).
